Test results taken from US20050208496A1, “Methods of testing for bronchial asthma or chronic obstructive pulmonary disease” (Genox Research, Inc., priority 2002, published 2005).
Where two headings read alike, the source gives them in different places.

Test system: respiratory epithelial cells
[1] = HG-U95E, lot 1, Day 3, AI (head as in Table 18)
[2] = HG-U95E, lot 1, Day 7, AI (no head printed, inferred)
[3] = HG-U95E, lot 2, Day 3, AI (no head printed, inferred)

IL-13: human IL-13 (Peprotech, Inc.) added to the medium at 50 ng/mL to stimulate respiratory epithelial cells
CRYM (38285_at) expression change upon IL-13 stimulation (HG-U95A, lot 2, Day 7, AI): −3.5 | CSPG2 (38112_g_at) expression change upon IL-13 stimulation (HG-U95A, lot 2, Day 7, AI): −2.5 | DHCR24 (36658_at) expression change upon IL-13 stimulation (HG-U95A, lot 2, Day 7, AI): −4.3 | DSG3 (33693_at) expression change upon IL-13 stimulation (HG-U95A, lot 2, Day 7, AI): −2.2 | E48 (36284_at) expression change upon IL-13 stimulation (HG-U95A, lot 2, Day 7, AI): −5.6 | EPHX1 (38790_at) expression change upon IL-13 stimulation (HG-U95A, lot 2, Day 7, AI): −5.1 | FACL2 (40082_at) expression change upon IL-13 stimulation (HG-U95A, lot 2, Day 7, AI): −2 | FMO3 (40665_at) expression change upon IL-13 stimulation (HG-U95A, lot 2, Day 7, AI): −4.3 | GLUL (40522_at) expression change upon IL-13 stimulation (HG-U95A, lot 2, Day 7, AI): −4.4 | GPX3 (770_at) expression change upon IL-13 stimulation (HG-U95A, lot 2, Day 7, AI): −2.8 | GSTA4 (40508_at) expression change upon IL-13 stimulation (HG-U95A, lot 2, Day 7, AI): −5.4 | HGNC, keratinocyte transglutaminase gene (35947_at) expression change upon IL-13 stimulation (HG-U95A, lot 2, Day 7, AI): −3.2 | KIAA0878 (32215_1_at) expression change upon IL-13 stimulation (HG-U95A, lot 2, Day 7, AI): −2.7 | KIAA1055 (39400_at) expression change upon IL-13 stimulation (HG-U95A, lot 2, Day 7, AI): −3 | LCE (40943_at) expression change upon IL-13 stimulation (HG-U95A, lot 2, Day 7, AI): −3.7 | LGALS1 (33412_at) expression change upon IL-13 stimulation (HG-U95A, lot 2, Day 7, AI): −6.2 | SCYD1 (823_at) expression change upon IL-13 stimulation (HG-U95A, lot 2, Day 7, AI): −24.6 | SDC1 (38127_at) expression change upon IL-13 stimulation (HG-U95A, lot 2, Day 7, AI): −2.9 | TGFBI (1385_at) expression change upon IL-13 stimulation (HG-U95A, lot 2, Day 7, AI): −4.9 | TNFAIP2 (38631_at) expression change upon IL-13 stimulation (HG-U95A, lot 2, Day 7, AI): −3.7 | AA199856 (72960_s_at) expression change upon IL-13 stimulation (HG-U95E, lot 1, Day 3, AI): 4.3 | AI859144, KIAA1127 (77546_at) expression change upon IL-13 stimulation (HG-U95E, lot 1, Day 3, AI): 4.2 | BAL (69619_at) expression change upon IL-13 stimulation (HG-U95E, lot 1, Day 3, AI): 3.5 | EHF (8S090_at) expression change upon IL-13 stimulation (HG-U95E, lot 1, Day 3, AI): 2.3 | EPSTI1 (90421_at) expression change upon IL-13 stimulation (HG-U95E, lot 1, Day 3, AI): 7.2 | FLJ20989 (91420_at) expression change upon IL-13 stimulation (HG-U95E, lot 1, Day 3, AI): 14.8 | FLJ22833 (67329_at) expression change upon IL-13 stimulation (HG-U95E, lot 1, Day 3, AI): 3.1 | GCNT3 (77751_at) expression change upon IL-13 stimulation (HG-U95E, lot 1, Day 3, AI): 4.9 | MFHAS1 (87816_g_at) expression change upon IL-13 stimulation (HG-U95E, lot 1, Day 3, AI): 3 | RPL4 (80675_at) expression change upon IL-13 stimulation (HG-U95E, lot 1, Day 3, AI): 2.2 | SCYA26 (90189_at) expression change upon IL-13 stimulation (HG-U95E, lot 1, Day 3, AI): 26.3 | H70665 (67357_at) expression change upon IL-13 stimulation [1]: 2.6 | SLC21A12 (87860_s_at) expression change upon IL-13 stimulation [1]: 2.7 | TBLR1 (87125_at) expression change upon IL-13 stimulation [1]: 2.8 | AA199856 (72960_s_at) expression change upon IL-13 stimulation (HG-U95E, lot 1, Day 3, IMM): 5.8 | AI859144, KIAA1127 (77546_at) expression change upon IL-13 stimulation (HG-U95E, lot 1, Day 3, IMM): 6.1 | AW024819 (72867_at) expression change upon IL-13 stimulation (HG-U95E, lot 1, Day 3, IMM): 4.2 | BAL (69619_at) expression change upon IL-13 stimulation (HG-U95E, lot 1, Day 3, IMM): 3.1 | EPSTI1 (90421_at) expression change upon IL-13 stimulation (HG-U95E, lot 1, Day 3, IMM): 9.9 | FLJ20989 (91420_at) expression change upon IL-13 stimulation (HG-U95E, lot 1, Day 3, IMM): 13.5 | GCNT3 (77751_at) expression change upon IL-13 stimulation (HG-U95E, lot 1, Day 3, IMM): 10.2 | RIG-1 (77749_at) expression change upon IL-13 stimulation (HG-U95E, lot 1, Day 3, IMM): 3.9 | SCYA26 (90189_at) expression change upon IL-13 stimulation (HG-U95E, lot 1, Day 3, IMM): 18.1 | EHF (85092_g_at) expression change upon IL-13 stimulation (HG-U95E, lot 1, Day 3, IMM (head as in Table 18)): 2.3 | AA199856 (72960_s_at) expression change upon IL-13 stimulation (HG-U95E, lot 1, Day 7, AI): 3.9 | AA806114 (80826_at) expression change upon IL-13 stimulation (HG-U95E, lot 1, Day 7, AI): 5.3 | AI803648 (89255_at) expression change upon IL-13 stimulation (HG-U95E, lot 1, Day 7, AI): 3.5 | AI859144, KIAA1127 (77546_at) expression change upon IL-13 stimulation (HG-U95E, lot 1, Day 7, AI): 2.6 | AI984061 (89834_at) expression change upon IL-13 stimulation (HG-U95E, lot 1, Day 7, AI): 2.7 | AW024819 (72867_at) expression change upon IL-13 stimulation (HG-U95E, lot 1, Day 7, AI): 2.6 | BCAT1 (72962_at) expression change upon IL-13 stimulation (HG-U95E, lot 1, Day 7, AI): 2.7 | CLDN1 (77660_at) expression change upon IL-13 stimulation (HG-U95E, lot 1, Day 7, AI): 2.6 | EHF (85092_g_at) expression change upon IL-13 stimulation (HG-U95E, lot 1, Day 7, AI): 2.1 | EPPK1 (86507_at) expression change upon IL-13 stimulation (HG-U95E, lot 1, Day 7, AI): 2.6 | FLJ20281 (83376_at) expression change upon IL-13 stimulation (HG-U95E, lot 1, Day 7, AI): 2.1 | FLJ20989 (91420_at) expression change upon IL-13 stimulation (HG-U95E, lot 1, Day 7, AI): 3.4 | FLJ21415 (89902_at) expression change upon IL-13 stimulation (HG-U95E, lot 1, Day 7, AI): 3.4 | FLJ22833 (67329_at) expression change upon IL-13 stimulation (HG-U95E, lot 1, Day 7, AI): 3.6 | GCNT3 (77751_at) expression change upon IL-13 stimulation (HG-U95E, lot 1, Day 7, AI): 2.5 | KIAA1685 (83541_at) expression change upon IL-13 stimulation (HG-U95E, lot 1, Day 7, AI): 2.6 | MASL1 (89651_at) expression change upon IL-13 stimulation (HG-U95E, lot 1, Day 7, AI): 4.3 | MFHAS1 (87816_g_at) expression change upon IL-13 stimulation (HG-U95E, lot 1, Day 7, AI): 3.4 | RIG-1 (77749_at) expression change upon IL-13 stimulation (HG-U95E, lot 1, Day 7, AI): 3.4 | SCYA26 (90189_at) expression change upon IL-13 stimulation (HG-U95E, lot 1, Day 7, AI): 30.4 | vipirin (84893_at) expression change upon IL-13 stimulation (HG-U95E, lot 1, Day 7, AI): 2.7 | NIFK (89320_at) expression change upon IL-13 stimulation [2]: 2.9 | SLC1A5 (34759_at) expression change upon IL-13 stimulation [2]: 2.5 | SLC17A5 (88617_at) expression change upon IL-13 stimulation [2]: 2.7 | SLC21A12 (87860_s_at) expression change upon IL-13 stimulation [2]: 2.7 | rab11-FIP1 (89338_at) expression change upon IL-13 stimulation [2]: 4.4 | AA199856 (72960_s_at) expression change upon IL-13 stimulation (HG-U95E, lot 1, Day 7, IMM): 3.8 | AA806114 (80826_at) expression change upon IL-13 stimulation (HG-U95E, lot 1, Day 7, IMM): 5.3 | AI803648 (89255_at) expression change upon IL-13 stimulation (HG-U95E, lot 1, Day 7, IMM): 7 | BAL (69619_at) expression change upon IL-13 stimulation (HG-U95E, lot 1, Day 7, IMM): 2.2 | BCAT1 (72962_at) expression change upon IL-13 stimulation (HG-U95E, lot 1, Day 7, IMM): 3.4 | EPPK1 (86507_at) expression change upon IL-13 stimulation (HG-U95E, lot 1, Day 7, IMM): 3.6 | EPSTI1 (90421_at) expression change upon IL-13 stimulation (HG-U95E, lot 1, Day 7, IMM): 3.4 | FLJ22833 (67329_at) expression change upon IL-13 stimulation (HG-U95E, lot 1, Day 7, IMM): 3.7 | GCNT3 (77751_at) expression change upon IL-13 stimulation (HG-U95E, lot 1, Day 7, IMM): 3.5 | MFHAS1 (87816_g_at) expression change upon IL-13 stimulation (HG-U95E, lot 1, Day 7, IMM): 3.1 | RIG-1 (77749_at) expression change upon IL-13 stimulation (HG-U95E, lot 1, Day 7, IMM): 5.1 | SCYA26 (90189_at) expression change upon IL-13 stimulation (HG-U95E, lot 1, Day 7, IMM): 35.1 | vipirin (84893_at) expression change upon IL-13 stimulation (HG-U95E, lot 1, Day 7, IMM): 6.6 | AA199856 (72960_s_at) expression change upon IL-13 stimulation (HG-U95E, lot 2, Day 3, AI): 18.8 | AA779704 (68562_at) expression change upon IL-13 stimulation (HG-U95E, lot 2, Day 3, AI): 2.8 | AA806114 (80826_at) expression change upon IL-13 stimulation (HG-U95E, lot 2, Day 3, AI): 7.2 | AI859144, KIAA1127 (77546_at) expression change upon IL-13 stimulation (HG-U95E, lot 2, Day 3, AI): 5.5 | BAL (69619_at) expression change upon IL-13 stimulation (HG-U95E, lot 2, Day 3, AI): 3.1 | BCAT1 (72962_at) expression change upon IL-13 stimulation (HG-U95E, lot 2, Day 3, AI): 10.5 | EHF (8S090_at) expression change upon IL-13 stimulation (HG-U95E, lot 2, Day 3, AI): 3.3 | EHF (85092_g_at) expression change upon IL-13 stimulation (HG-U95E, lot 2, Day 3, AI): 3.3 | EPSTI1 (90421_at) expression change upon IL-13 stimulation (HG-U95E, lot 2, Day 3, AI): 9.4 | FLJ22833 (67329_at) expression change upon IL-13 stimulation (HG-U95E, lot 2, Day 3, AI): 6.1 | MASL1 (89651_at) expression change upon IL-13 stimulation (HG-U95E, lot 2, Day 3, AI): 3.2 | MFHAS1 (87816_g_at) expression change upon IL-13 stimulation (HG-U95E, lot 2, Day 3, AI): 3.5 | OAS2 (90662_at) expression change upon IL-13 stimulation (HG-U95E, lot 2, Day 3, AI): 4.1 | RIG-1 (77749_at) expression change upon IL-13 stimulation (HG-U95E, lot 2, Day 3, AI): 6.4 | RPL4 (80675_at) expression change upon IL-13 stimulation (HG-U95E, lot 2, Day 3, AI): 2.3 | SCYA26 (90189_at) expression change upon IL-13 stimulation (HG-U95E, lot 2, Day 3, AI): 16.7 | vipirin (84893_at) expression change upon IL-13 stimulation (HG-U95E, lot 2, Day 3, AI): 15.4 | H70665 (67357_at) expression change upon IL-13 stimulation [3]: 2.1 | NIFK (89320_at) expression change upon IL-13 stimulation [3]: 2.1 | TBLR1 (87125_at) expression change upon IL-13 stimulation [3]: 4.4 | NIFK (89320_at) expression change upon IL-13 stimulation (HG-U95E, lot 2, Day 7): 3.4 | SLC1A5 (34759_at) expression change upon IL-13 stimulation (HG-U95E, lot 2, Day 7): 2.9 | SLC17A5 (88617_at) expression change upon IL-13 stimulation (HG-U95E, lot 2, Day 7): 2.3
